# Results: patent US6525001B1, “Substituted pyrimidine and pyridine herbicides” (Mid-American Commercialization Corporation, priority 1997, dated 2003)
# Key:
# Assay in all cases: Test B pre-/postemergence
# Assay type in all cases: in vivo
# Set-up in all cases: key: 0 is no effect; 10 is complete control
# [1] = test system: bedstraw (Galium aparine)
# Source text: (§1) Seeds of bedstraw (Galium aparine), blackgrass (Alopecurus myosuroides), broadleaf signalgrass (Brachiaria decumbens), cocklebur (Xanthium strumarium), corn (Zea mays), crabgrass (Digitaria sanguinalis), giant foxtail (Setaria faberii), lambsquarters (Chenopodium album), momingglory (Ipomoea hederacea), pigweed (Amaranthus retroflexus), rape (Brassica napus), soybean (Glycine max), sugar beet (Beta vulgaris), velvetleaf (Abutilon theophrasti), wheat (Triticum aestivum), wild oat (Avena fatua) and purple nutsedge (Cyperus rotundus) tubers were planted and treated preemergence with test chemicals formulated in a non-phytotoxic solvent mixture which included a surfactant.
# (§2) At the same time, these crop and weed species were also treated with postemergence applications of test chemicals formulated in the same manner. Plants ranged in height from 2 to 18 cm (1- to 4-leaf stage) for postemergence treatments. Plant species in the flood test consisted of rice (Oryza sativa), smallflower flatsedge (Cyperus difformis), duck salad (Heteranthera limosa) and bamyardgrass (Echinochloa crus-galli) grown to the 2-leaf stage for testing. Treated plants and controls were maintained in a greenhouse for twelve to sixteen days, after which all species were compared to controls and visually evaluated. Plant response ratings, summarized in Table B, are based on a scale of 0 to 10 where 0 is no effect and 10 is complete control. A dash (−) response means no test result.
# [2] = test system: blackgrass (Alopecurus myosuroides)
# Source text: as §1, §2
# [3] = test system: broadleaf signalgrass (Brachiaria decumbens)
# Source text: as §1, §2
# [4] = test system: cocklebur (Xanthium strumarium)
# Source text: as §1, §2
# corn (Zea mays) = test system: corn (Zea mays)
# Source text: as §1, §2
# [5] = test system: crabgrass (Digitaria sanguinalis)
# Source text: as §1, §2
# [6] = test system: giant foxtail (Setaria faberii)
# Source text: as §1, §2
# [7] = test system: momingglory (Ipomoea hederacea)
# Source text: as §1, §2
# [8] = test system: pigweed (Amaranthus retroflexus)
# Source text: as §1, §2
# [9] = test system: purple nutsedge (Cyperus rotundus)
# Source text: as §1, §2
# rape (Brassica napus) = test system: rape (Brassica napus)
# Source text: as §1, §2
# soybean (Glycine max) = test system: soybean (Glycine max)
# Source text: as §1, §2
# [10] = test system: sugar beet (Beta vulgaris)
# Source text: as §1, §2
# [11] = test system: velvetleaf (Abutilon theophrasti)
# Source text: as §1, §2
# [12] = test system: wheat (Triticum aestivum)
# Source text: as §1, §2
# wild oat (Avena fatua) = test system: wild oat (Avena fatua)
# Source text: as §1, §2
smiles,measurement,setting,value
Cc1cnc(-c2ccc(C(F)(F)F)cc2)nc1Cn1cnc(C(F)(F)F)n1 [Compound 11],"Plant response rating, Bedstraw","[1]; Rate 62 g/ha, Postemergence",8
same,Bedstraw plant response rating,"[1]; Rate 62 g/ha, Preemergence",5
same,"Plant response rating, Bedstraw","[1]; Rate 125 g/ha, Postemergence",9
same,Bedstraw plant response rating,"[1]; Rate 125 g/ha, Preemergence",8
same,"Plant response rating, Bedstraw","[1]; Rate 250 g/ha, Postemergence",10
same,"Plant response rating, Bedstraw","[1]; Rate 250 g/ha, Preemergence",9
same,"Plant response rating, Bedstraw","[1]; Rate 500 g/ha, Postemergence",10
same,"Plant response rating, Bedstraw","[1]; Rate 500 g/ha, Preemergence",9
same,"Plant response rating, Blackgrass","[2]; Rate 62 g/ha, Postemergence",2
same,Blackgrass plant response rating,"[2]; Rate 62 g/ha, Preemergence",3
same,"Plant response rating, Blackgrass","[2]; Rate 125 g/ha, Postemergence",3
same,Blackgrass plant response rating,"[2]; Rate 125 g/ha, Preemergence",3
same,"Plant response rating, Blackgrass","[2]; Rate 250 g/ha, Postemergence",7
same,"Plant response rating, Blackgrass","[2]; Rate 250 g/ha, Preemergence",5
same,"Plant response rating, Blackgrass","[2]; Rate 500 g/ha, Postemergence",5
same,"Plant response rating, Blackgrass","[2]; Rate 500 g/ha, Preemergence",5
same,"Plant response rating, B. signalgrass","[3]; Rate 62 g/ha, Postemergence",3
same,B. signalgrass plant response rating,"[3]; Rate 62 g/ha, Preemergence",2
same,"Plant response rating, B. signalgrass","[3]; Rate 125 g/ha, Postemergence",3
same,B. signalgrass plant response rating,"[3]; Rate 125 g/ha, Preemergence",3
same,"Plant response rating, B. signalgrass","[3]; Rate 250 g/ha, Postemergence",4
same,"Plant response rating, B. signalgrass","[3]; Rate 250 g/ha, Preemergence",8
same,"Plant response rating, B. signalgrass","[3]; Rate 500 g/ha, Postemergence",7
same,"Plant response rating, B. signalgrass","[3]; Rate 500 g/ha, Preemergence",8
same,"Plant response rating, Cocklebur","[4]; Rate 62 g/ha, Postemergence",7
same,Cocklebur plant response rating,"[4]; Rate 62 g/ha, Preemergence",0
same,"Plant response rating, Cocklebur","[4]; Rate 125 g/ha, Postemergence",8
same,"Plant response rating, Cocklebur","[4]; Rate 250 g/ha, Postemergence",9
same,"Plant response rating, Cocklebur","[4]; Rate 250 g/ha, Preemergence",3
same,"Plant response rating, Cocklebur","[4]; Rate 500 g/ha, Postemergence",9
same,"Plant response rating, Corn","corn (Zea mays); Rate 62 g/ha, Postemergence",3
same,Corn plant response rating,"corn (Zea mays); Rate 62 g/ha, Preemergence",0
same,"Plant response rating, Corn","corn (Zea mays); Rate 125 g/ha, Postemergence",3
same,Corn plant response rating,"corn (Zea mays); Rate 125 g/ha, Preemergence",0
same,"Plant response rating, Corn","corn (Zea mays); Rate 250 g/ha, Postemergence",3
same,"Plant response rating, Corn","corn (Zea mays); Rate 250 g/ha, Preemergence",0
same,"Plant response rating, Corn","corn (Zea mays); Rate 500 g/ha, Postemergence",3
same,"Plant response rating, Corn","corn (Zea mays); Rate 500 g/ha, Preemergence",0
same,"Plant response rating, Crabgrass","[5]; Rate 62 g/ha, Postemergence",2
same,Crabgrass plant response rating,"[5]; Rate 62 g/ha, Preemergence",7
same,"Plant response rating, Crabgrass","[5]; Rate 125 g/ha, Postemergence",4
same,Crabgrass plant response rating,"[5]; Rate 125 g/ha, Preemergence",7
same,"Plant response rating, Crabgrass","[5]; Rate 250 g/ha, Postemergence",6
same,"Plant response rating, Crabgrass","[5]; Rate 250 g/ha, Preemergence",9
same,"Plant response rating, Crabgrass","[5]; Rate 500 g/ha, Postemergence",7
same,"Plant response rating, Crabgrass","[5]; Rate 500 g/ha, Preemergence",10
same,"Plant response rating, Giant foxtail","[6]; Rate 62 g/ha, Postemergence",2
same,Giant foxtail plant response rating,"[6]; Rate 62 g/ha, Preemergence",6
same,"Plant response rating, Giant foxtail","[6]; Rate 125 g/ha, Postemergence",4
same,Giant foxtail plant response rating,"[6]; Rate 125 g/ha, Preemergence",9
same,"Plant response rating, Giant foxtail","[6]; Rate 250 g/ha, Postemergence",5
same,"Plant response rating, Giant foxtail","[6]; Rate 250 g/ha, Preemergence",9
same,"Plant response rating, Giant foxtail","[6]; Rate 500 g/ha, Postemergence",9
same,"Plant response rating, Giant foxtail","[6]; Rate 500 g/ha, Preemergence",10
same,"Plant response rating, Morningglory","[7]; Rate 62 g/ha, Postemergence",7
same,Morningglory plant response rating,"[7]; Rate 62 g/ha, Preemergence",3
same,"Plant response rating, Morningglory","[7]; Rate 125 g/ha, Postemergence",10
same,Morningglory plant response rating,"[7]; Rate 125 g/ha, Preemergence",8
same,"Plant response rating, Morningglory","[7]; Rate 250 g/ha, Postemergence",10
same,"Plant response rating, Morningglory","[7]; Rate 250 g/ha, Preemergence",9
same,"Plant response rating, Morningglory","[7]; Rate 500 g/ha, Preemergence",10
same,"Plant response rating, Redroot pigweed","[8]; Rate 62 g/ha, Postemergence",9
same,Redroot pigweed plant response rating,"[8]; Rate 62 g/ha, Preemergence",9
same,"Plant response rating, Redroot pigweed","[8]; Rate 125 g/ha, Postemergence",10
same,Redroot pigweed plant response rating,"[8]; Rate 125 g/ha, Preemergence",9
same,"Plant response rating, Redroot pigweed","[8]; Rate 250 g/ha, Postemergence",10
same,"Plant response rating, Redroot pigweed","[8]; Rate 250 g/ha, Preemergence",10
same,"Plant response rating, Redroot pigweed","[8]; Rate 500 g/ha, Postemergence",10
same,"Plant response rating, Redroot pigweed","[8]; Rate 500 g/ha, Preemergence",10
same,"Plant response rating, Nutsedge","[9]; Rate 62 g/ha, Postemergence",1
same,"Plant response rating, Nutsedge","[9]; Rate 125 g/ha, Postemergence",1
same,Nutsedge plant response rating,"[9]; Rate 125 g/ha, Preemergence",0
same,"Plant response rating, Nutsedge","[9]; Rate 250 g/ha, Postemergence",1
same,"Plant response rating, Nutsedge","[9]; Rate 250 g/ha, Preemergence",0
same,"Plant response rating, Nutsedge","[9]; Rate 500 g/ha, Preemergence",1
same,"Plant response rating, Rape","rape (Brassica napus); Rate 62 g/ha, Postemergence",9
same,Rape plant response rating,"rape (Brassica napus); Rate 62 g/ha, Preemergence",9
same,"Plant response rating, Rape","rape (Brassica napus); Rate 125 g/ha, Postemergence",9
same,Rape plant response rating,"rape (Brassica napus); Rate 125 g/ha, Preemergence",9
same,"Plant response rating, Rape","rape (Brassica napus); Rate 250 g/ha, Postemergence",10
same,"Plant response rating, Rape","rape (Brassica napus); Rate 250 g/ha, Preemergence",10
same,"Plant response rating, Rape","rape (Brassica napus); Rate 500 g/ha, Postemergence",10
same,"Plant response rating, Rape","rape (Brassica napus); Rate 500 g/ha, Preemergence",10
same,"Plant response rating, Soybean","soybean (Glycine max); Rate 62 g/ha, Postemergence",5
same,Soybean plant response rating,"soybean (Glycine max); Rate 62 g/ha, Preemergence",1
same,"Plant response rating, Soybean","soybean (Glycine max); Rate 125 g/ha, Postemergence",7
same,Soybean plant response rating,"soybean (Glycine max); Rate 125 g/ha, Preemergence",1
same,"Plant response rating, Soybean","soybean (Glycine max); Rate 250 g/ha, Postemergence",8
same,"Plant response rating, Soybean","soybean (Glycine max); Rate 250 g/ha, Preemergence",1
same,"Plant response rating, Soybean","soybean (Glycine max); Rate 500 g/ha, Postemergence",9
same,"Plant response rating, Soybean","soybean (Glycine max); Rate 500 g/ha, Preemergence",2
same,"Plant response rating, Sugarbeets","[10]; Rate 62 g/ha, Postemergence",9
same,Sugarbeets plant response rating,"[10]; Rate 62 g/ha, Preemergence",10
same,"Plant response rating, Sugarbeets","[10]; Rate 125 g/ha, Postemergence",10
same,Sugarbeets plant response rating,"[10]; Rate 125 g/ha, Preemergence",10
same,"Plant response rating, Sugarbeets","[10]; Rate 250 g/ha, Postemergence",10
same,"Plant response rating, Sugarbeets","[10]; Rate 250 g/ha, Preemergence",10
same,"Plant response rating, Sugarbeets","[10]; Rate 500 g/ha, Postemergence",10
same,"Plant response rating, Sugarbeets","[10]; Rate 500 g/ha, Preemergence",10
same,"Plant response rating, Velvetleaf","[11]; Rate 62 g/ha, Postemergence",8
same,Velvetleaf plant response rating,"[11]; Rate 62 g/ha, Preemergence",3
same,"Plant response rating, Velvetleaf","[11]; Rate 125 g/ha, Postemergence",8
same,Velvetleaf plant response rating,"[11]; Rate 125 g/ha, Preemergence",6
same,"Plant response rating, Velvetleaf","[11]; Rate 250 g/ha, Postemergence",8
same,"Plant response rating, Velvetleaf","[11]; Rate 250 g/ha, Preemergence",8
same,"Plant response rating, Velvetleaf","[11]; Rate 500 g/ha, Postemergence",9
same,"Plant response rating, Velvetleaf","[11]; Rate 500 g/ha, Preemergence",10
same,"Plant response rating, Wheat","[12]; Rate 62 g/ha, Postemergence",2
same,Wheat plant response rating,"[12]; Rate 62 g/ha, Preemergence",0
same,"Plant response rating, Wheat","[12]; Rate 125 g/ha, Postemergence",2
same,Wheat plant response rating,"[12]; Rate 125 g/ha, Preemergence",1
same,"Plant response rating, Wheat","[12]; Rate 250 g/ha, Postemergence",3
same,"Plant response rating, Wheat","[12]; Rate 250 g/ha, Preemergence",1
same,"Plant response rating, Wheat","[12]; Rate 500 g/ha, Postemergence",3
same,"Plant response rating, Wheat","[12]; Rate 500 g/ha, Preemergence",3
same,"Plant response rating, Wild oats","wild oat (Avena fatua); Rate 62 g/ha, Postemergence",2
same,Wild oats plant response rating,"wild oat (Avena fatua); Rate 62 g/ha, Preemergence",2
same,"Plant response rating, Wild oats","wild oat (Avena fatua); Rate 125 g/ha, Postemergence",3
same,Wild oats plant response rating,"wild oat (Avena fatua); Rate 125 g/ha, Preemergence",4
same,"Plant response rating, Wild oats","wild oat (Avena fatua); Rate 250 g/ha, Postemergence",3
same,"Plant response rating, Wild oats","wild oat (Avena fatua); Rate 250 g/ha, Preemergence",4
same,"Plant response rating, Wild oats","wild oat (Avena fatua); Rate 500 g/ha, Postemergence",5
same,"Plant response rating, Wild oats","wild oat (Avena fatua); Rate 500 g/ha, Preemergence",6
